Values of other authors as cited in US20090304885A1, “Coffee and Tea Baking Compounds and Method of Producing The Same” (priority 2008, published 2009).

How the values were obtained:
[1] = animal models
[2] = tested on: methylazoxymethanol-induced large intestinal tumors; details: hamster

SMILES | antibacterial effect (Serratia marcescens) | antibacterial effect (Enterobacter cloacae) | cancer preventive activities [1] | inhibition of tumors [2]
O=C(O)c1ccc(O)c(O)c1 [protocatechuic acid] | particularly strong effect | particularly strong effect | – | –
Cn1c(=O)c2c(ncn2C)n(C)c1=O [caffeine] | particularly strong effect | particularly strong effect | – | –
O=C(O)/C=C/c1ccc(O)cc1 [para-coumaric acid] | – | – | exert cancer preventive activities | –
O=C(/C=C/c1ccc(O)c(O)c1)O[C@@H]1C[C@](O)(C(=O)O)C[C@@H](O)[C@H]1O [chlorogenic acid] | particularly strong effect | particularly strong effect | – | inhibit
O=C(O)/C=C/c1ccc(O)c(O)c1 [caffeic acid] | – | – | exert cancer preventive activities | –
